In PubChem BioAssay (NCI):
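Interpolation was linear, between the two tested concentrations surrounding the appropriate level; five concentrations were tested over 48 hours in 96-well plates. At the GI50, growth is halved. TGI: concentration producing complete growth inhibition.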

What was measured:
Experiment in all cases: NCI-60 cell line screen, 48 h
A498 renal = tested on: A498 renal
HOP-92 NSCLC = tested on: HOP-92 NSCLC
OVCAR-4 ovarian = tested on: OVCAR-4 ovarian
SF-268 CNS = tested on: SF-268 CNS
U251 CNS = tested on: U251 CNS
OVCAR-3 ovarian = tested on: OVCAR-3 ovarian
MOLT-4 leukemia = tested on: MOLT-4 leukemia
SN12C renal = tested on: SN12C renal
BT-549 breast = tested on: BT-549 breast
HL-60(TB) leukemia = tested on: HL-60(TB) leukemia
TK-10 renal = tested on: TK-10 renal
MDA-MB-231 breast = tested on: MDA-MB-231 breast
UACC-62 melanoma = tested on: UACC-62 melanoma
MCF7 breast = tested on: MCF7 breast
SF-295 CNS = tested on: SF-295 CNS
NCI-H522 lung = tested on: NCI-H522 lung
UACC-257 melanoma = tested on: UACC-257 melanoma
HOP-62 NSCLC = tested on: HOP-62 NSCLC
NCI-H23 lung = tested on: NCI-H23 lung
IGROV1 ovarian = tested on: IGROV1 ovarian
KM12 colon = tested on: KM12 colon
UO-31 renal = tested on: UO-31 renal
T-47D breast = tested on: T-47D breast
SR leukemia = tested on: SR leukemia
CCRF-CEM leukemia = tested on: CCRF-CEM leukemia
NCI-H460 lung = tested on: NCI-H460 lung
SNB-75 CNS = tested on: SNB-75 CNS
NCI/ADR-RES ovarian = tested on: NCI/ADR-RES ovarian
SW-620 colon = tested on: SW-620 colon
LOX IMVI melanoma = tested on: LOX IMVI melanoma
SNB-19 CNS = tested on: SNB-19 CNS
A549 NSCLC = tested on: A549 NSCLC
CAKI-1 renal = tested on: CAKI-1 renal
NCI-H226 lung = tested on: NCI-H226 lung
HS 578T breast = tested on: HS 578T breast
HT29 colon = tested on: HT29 colon
K-562 leukemia = tested on: K-562 leukemia
MALME-3M melanoma = tested on: MALME-3M melanoma
SK-OV-3 ovarian = tested on: SK-OV-3 ovarian
COLO 205 colon = tested on: COLO 205 colon
DU-145 prostate = tested on: DU-145 prostate
HCT-116 colon = tested on: HCT-116 colon
SK-MEL-5 melanoma = tested on: SK-MEL-5 melanoma
M14 melanoma = tested on: M14 melanoma
PC-3 prostate = tested on: PC-3 prostate
OVCAR-8 ovarian = tested on: OVCAR-8 ovarian
786-0 renal = tested on: 786-0 renal
RPMI-8226 leukemia = tested on: RPMI-8226 leukemia
HCT-15 colon = tested on: HCT-15 colon
RXF 393 renal = tested on: RXF 393 renal
HCC-2998 colon = tested on: HCC-2998 colon
MDA-MB-435 = tested on: MDA-MB-435

SMILES: Clc1ccc2c(N3CCN(c4ccnc(NC5CCCCC5)n4)CC3)ccnc2c1
- GI50 (A498 renal): 1.79 µM
- TGI (A498 renal): 8.22 µM
- GI50 (HOP-92 NSCLC): 1.68 µM
- TGI (HOP-92 NSCLC): 4.99 µM
- GI50 (OVCAR-4 ovarian): 2.56 µM
- TGI (OVCAR-4 ovarian): 11.2 µM
- GI50 (SF-268 CNS): 3.65 µM
- TGI (SF-268 CNS): 13.3 µM
- GI50 (U251 CNS): 1.62 µM
- TGI (U251 CNS): 3 µM
- GI50 (OVCAR-3 ovarian): 1.74 µM
- TGI (OVCAR-3 ovarian): 3.49 µM
- GI50 (MOLT-4 leukemia): 2.13 µM
- TGI (MOLT-4 leukemia): 5.47 µM
- GI50 (SN12C renal): 1.79 µM
- TGI (SN12C renal): 3.6 µM
- GI50 (BT-549 breast): 1.75 µM
- TGI (BT-549 breast): 3.31 µM
- GI50 (HL-60(TB) leukemia): 2.22 µM
- TGI (HL-60(TB) leukemia): 5.07 µM
- GI50 (TK-10 renal): 2.29 µM
- TGI (TK-10 renal): 5.16 µM
- GI50 (MDA-MB-231 breast): 2.01 µM
- TGI (MDA-MB-231 breast): 3.97 µM
- GI50 (UACC-62 melanoma): 1.7 µM
- TGI (UACC-62 melanoma): 3.26 µM
- GI50 (MCF7 breast): 1.76 µM
- TGI (MCF7 breast): 4.02 µM
- GI50 (SF-295 CNS): 1.91 µM
- TGI (SF-295 CNS): 3.79 µM
- GI50 (NCI-H522 lung): 1.97 µM
- TGI (NCI-H522 lung): 3.84 µM
- GI50 (UACC-257 melanoma): 1.95 µM
- TGI (UACC-257 melanoma): 4.11 µM
- GI50 (HOP-62 NSCLC): 2.35 µM
- TGI (HOP-62 NSCLC): 5.73 µM
- GI50 (NCI-H23 lung): 3.4 µM
- TGI (NCI-H23 lung): 9.71 µM
- GI50 (IGROV1 ovarian): 2.27 µM
- TGI (IGROV1 ovarian): 5.04 µM
- GI50 (KM12 colon): 2.16 µM
- TGI (KM12 colon): 4.49 µM
- GI50 (UO-31 renal): 1.31 µM
- TGI (UO-31 renal): 2.87 µM
- GI50 (T-47D breast): 2.11 µM
- TGI (T-47D breast): 5.5 µM
- GI50 (SR leukemia): 1.83 µM
- TGI (SR leukemia): 4.48 µM
- GI50 (CCRF-CEM leukemia): 2.07 µM
- TGI (CCRF-CEM leukemia): 6.07 µM
- GI50 (NCI-H460 lung): 2.05 µM
- TGI (NCI-H460 lung): 4.23 µM
- GI50 (SNB-75 CNS): 2.16 µM
- TGI (SNB-75 CNS): 6.74 µM
- GI50 (NCI/ADR-RES ovarian): 2.44 µM
- TGI (NCI/ADR-RES ovarian): 6.66 µM
- GI50 (SW-620 colon): 1.68 µM
- TGI (SW-620 colon): 3.72 µM
- GI50 (LOX IMVI melanoma): 1.92 µM
- TGI (LOX IMVI melanoma): 3.46 µM
- GI50 (SNB-19 CNS): 2.47 µM
- TGI (SNB-19 CNS): 7.33 µM
- GI50 (A549 NSCLC): 3.17 µM
- TGI (A549 NSCLC): 10.8 µM
- GI50 (CAKI-1 renal): 2.21 µM
- TGI (CAKI-1 renal): 6.87 µM
- GI50 (NCI-H226 lung): 3.41 µM
- TGI (NCI-H226 lung): 16.6 µM
- GI50 (HS 578T breast): 2.41 µM
- TGI (HS 578T breast): 8.08 µM
- GI50 (HT29 colon): 1.85 µM
- TGI (HT29 colon): 4.06 µM
- GI50 (K-562 leukemia): 2.19 µM
- TGI (K-562 leukemia): 5.43 µM
- GI50 (MALME-3M melanoma): 1.98 µM
- TGI (MALME-3M melanoma): 4.02 µM
- GI50 (SK-OV-3 ovarian): 4.2 µM
- TGI (SK-OV-3 ovarian): 14 µM
- GI50 (COLO 205 colon): 1.77 µM
- TGI (COLO 205 colon): 3.43 µM
- GI50 (DU-145 prostate): 3.78 µM
- TGI (DU-145 prostate): 13 µM
- GI50 (HCT-116 colon): 1.36 µM
- TGI (HCT-116 colon): 2.8 µM
- GI50 (SK-MEL-5 melanoma): 1.7 µM
- TGI (SK-MEL-5 melanoma): 3.14 µM
- GI50 (M14 melanoma): 1.78 µM
- TGI (M14 melanoma): 3.42 µM
- GI50 (PC-3 prostate): 1.56 µM
- TGI (PC-3 prostate): 3.3 µM
- GI50 (OVCAR-8 ovarian): 3.27 µM
- TGI (OVCAR-8 ovarian): 12.6 µM
- GI50 (786-0 renal): 1.69 µM
- TGI (786-0 renal): 3.14 µM
- GI50 (RPMI-8226 leukemia): 1.81 µM
- TGI (RPMI-8226 leukemia): 4.69 µM
- GI50 (HCT-15 colon): 2.26 µM
- TGI (HCT-15 colon): 6.74 µM
- GI50 (RXF 393 renal): 1.84 µM
- TGI (RXF 393 renal): 3.54 µM
- GI50 (HCC-2998 colon): 1.93 µM
- TGI (HCC-2998 colon): 3.88 µM
- GI50 (MDA-MB-435): 1.91 µM
- TGI (MDA-MB-435): 3.88 µM
